From BindingDB's records for patent US9688678 (Abbvie Deutschland, 2017)

Biological target: T1, Vasopressin V1b receptor (Homo sapiens, UniProt P47901)
T1 sequence (P47901 whole entry): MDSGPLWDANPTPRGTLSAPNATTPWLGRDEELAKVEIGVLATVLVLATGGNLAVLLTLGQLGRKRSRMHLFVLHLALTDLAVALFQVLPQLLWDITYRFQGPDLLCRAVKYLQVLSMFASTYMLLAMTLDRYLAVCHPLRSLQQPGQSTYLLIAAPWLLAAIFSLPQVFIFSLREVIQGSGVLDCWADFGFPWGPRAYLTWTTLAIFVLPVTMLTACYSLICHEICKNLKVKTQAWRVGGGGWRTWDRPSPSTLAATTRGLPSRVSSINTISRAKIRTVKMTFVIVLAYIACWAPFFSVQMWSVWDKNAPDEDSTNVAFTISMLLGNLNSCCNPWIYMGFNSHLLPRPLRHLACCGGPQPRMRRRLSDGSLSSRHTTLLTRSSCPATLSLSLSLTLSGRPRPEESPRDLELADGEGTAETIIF
Test: Binding Assay
Details: pH 7.4; 25 °C
Experimental: The nonspecific binding was determined with 1 μM AVP (Fluka 94836). All determinations were carried out as duplicate determinations. […] The liquid scintillation measurement took place in a Microbeta TriLux 12 (Wallac).

Row | Ki | SMILES
1 | < 1 nM | CCOc1ccc(OC)cc1C1(N2CC3(CN(N4CCN(C)CC4)C3)C2)C(=O)N(S(=O)(=O)c2ccc(OC)cn2)C2C=CC(C#N)=CC21 (racemic) [US9688678, 17 (+-)-3-(2-ethoxy-5-methoxy-phenyl)-1-[(5-methoxy-2-pyridyl)sulfonyl]-3-[2-(4-methylpiperazin-1-yl)-6-azaspiro[3.3]heptan-6-yl]-2-oxo-indoline-5-carbonitrile]
2 | < 1 nM | CCOc1ccc(OC)cc1C1(N2CC3(CN(C4CCN(C(C)C)CC4)C3)C2)C(=O)N(S(=O)(=O)c2ccc(OC)cn2)C2C=CC(C#N)=CC21 (racemic) [US9688678, 19 (+-)-3-(2-ethoxy-5-methoxy-phenyl)-3-[2-(1-isopropyl-4-piperidyl)-2,6-diazaspiro[3.3]heptan-6-yl]-1-[(5-methoxy-2-pyridyl)sulfonyl]-2-oxo-indoline-5-carbonitrile]
3 | < 1 nM | COc1ccc(S(=O)(=O)N2C(=O)C(c3cc(OC)ccc3OC)(N3CC4(CN(C5CCN(C)CC5)C4)C3)C3C=C(C#N)C=CC32)nc1 (racemic) [US9688678, 21 (+-)-3-(2,5-dimethoxyphenyl)-1-[(5-methoxy-2-pyridyl)sulfonyl]-3-[2-(1-methyl-4-piperidyl)-2,6-diazaspiro[3.3]heptan-6-yl]-2-oxo-indoline-5-carbonitrile]
4 | < 1 nM | CCOc1ccc(OC)cc1C1(N2CC3(CN(N4CCN(C)CC4)C3)C2)C(=O)N(S(=O)(=O)c2ccc(OC)cn2)C2C=CC(C#N)=CC21 (single isomer, unassigned; (+)) [US9688678, 17B (+)-3-(2-ethoxy-5-methoxy-phenyl)-1-[(5-methoxy-2-pyridyl)sulfonyl]-3-[2-(4-methylpiperazin-1-yl)-6-azaspiro[3.3]heptan-6-yl]-2-oxo-indoline-5-carbonitrile]
5 | < 1 nM | COc1ccc(S(=O)(=O)N2C(=O)C(c3ccccc3OC)(N3CC4(CN(C5CCN(C)CC5)C4)C3)C3C=C(C#N)C=CC32)nc1 (stereo not drawn) [US9688678, 18 (+-)3-(2-methoxyphenyl)-1-[(5-methoxy-2-pyridyl)sulfonyl]-3-[2-(1-methyl-4-piperidyl)-2,6-diazaspiro[3.3]heptan-6-yl]-2-oxo-indoline-5-carbonitrile]
6 | < 1 nM | COc1ccc(S(=O)(=O)N2C(=O)C(c3ccccc3OC)(N3CC4(CN(C5CCN(C)CC5)C4)C3)C3C=C(C#N)C=CC32)nc1 (stereo not drawn) [US9688678, 18A (+)-3-(2-methoxyphenyl)-1-[(5-methoxy-2-pyridyl)sulfonyl]-3-[2-(1-methyl-4-piperidyl)-2,6-diazaspiro[3.3]heptan-6-yl]-2-oxo-indoline-5-carbonitrile]
7 | in the range around 5.5 nM | CCOc1ccc(OC)cc1C1(N2CC3(CN(C4CCN(C)CC4)C3)C2)C(=O)N(S(=O)(=O)c2ccc(OC)cn2)C2C=C(C#N)C=CC21 (stereo not drawn) [US9688678, 29 (+-)-3-(2-ethoxy-5-methoxy-phenyl)-1-[(5-methoxy-2-pyridyl)sulfonyl]-3-[2-(1-methyl-4-piperidyl)-2,6-diazaspiro[3.3]heptan-6-yl]-2-oxo-indoline-6-carbonitrile]
8 | in the range around 55 nM | CCOc1ccc(OC)cc1[C@]1(N2CC3(CN(C4CCN(C)CC4)C3)C2)C(=O)N(S(=O)(=O)c2cccc(OC)n2)C2C=CC(C#N)=CC21 (stereo partly drawn) [US9688678, 32 (3S)-3-(2-ethoxy-5-methoxy-phenyl)-1-[(6-methoxy-2-pyridyl)sulfonyl]-3-[2-(1-methyl-4-piperidyl)-2,6-diazaspiro[3.3]heptan-6-yl]-2-oxo-indoline-5-carbonitrile]
9 | < 1 nM | CCOc1ccc(OC)cc1[C@]1(N2CC3(CN(C4CCN(C)CC4)C3)C2)C(=O)N(S(=O)(=O)c2ccc(Cl)cn2)C2C=CC(C#N)=CC21 (stereo partly drawn) [US9688678, 34 (3S)-1-[(5-chloro-2-pyridyl)sulfonyl]-3-(2-ethoxy-5-methoxy-phenyl)-3-[2-(1-methyl-4-piperidyl)-2,6-diazaspiro[3.3]heptan-6-yl]-2-oxo-indoline-5-carbonitrile]

The next lines start with the compound.

Row | SMILES | Ki
10 | CCOc1ccc(OC)c(C2(N3CC4(CN(C5CCN(C)CC5)C4)C3)C(=O)N(S(=O)(=O)c3ccc(OC)cc3OC)C3C=CC(C#N)=CC32)c1 (racemic) [US9688678, 2 (+-)-1-(2,4-dimethoxyphenyl)sulfonyl-3-(2-ethoxy-5-methoxy-phenyl)-3-[2-(1-methyl-4-piperidyl)-2,6-diazaspiro[3.3]heptan-6-yl]-2-oxo-indoline-5-carbonitrile] | in the range around 55 nM
11 | CCOc1ccc(OC)c(C2(N3CC4(CN(C5CCN(C)CC5)C4)C3)C(=O)N(S(=O)(=O)c3cccc4cccnc34)C3C=CC(C#N)=CC32)c1 (racemic) [US9688678, 3 (+-)-3-(2-ethoxy-5-methoxy-phenyl)-3-[2-(1-methyl-4-piperidyl)-2,6-diazaspiro[3.3]heptan-6-yl]-2-oxo-1-(8-quinolylsulfonyl)indoline-5-carbonitrile] | in the range around 55 nM
12 | CCOc1ccc(OC)cc1C1(N2CC3(CN(C4CCN(C)CC4)C3)C2)C(=O)N(S(=O)(=O)c2cc(C#N)ccn2)C2C=CC(C#N)=CC21 (racemic) [US9688678, 14 (+-)-1-(4-cyanophenyl)sulfonyl-3-(2-ethoxy-5-methoxy-phenyl)-3-[2-(1-methyl-4-piperidyl)-2,6-diazaspiro[3.3]heptan-6-yl]-2-oxo-indoline-5-carbonitrile] | in the range around 55 nM
13 | CCOc1ccc(OC)cc1C1(N2CC3(CN(C4CCN(C)CC4)C3)C2)C(=O)N(S(=O)(=O)c2cc(F)ccn2)C2C=CC(C#N)=CC21 (racemic) [US9688678, 16 (+-)-3-(2-ethoxy-5-methoxy-phenyl)-1-(4-fluorophenyl)sulfonyl-3-[2-(1-methyl-4-piperidyl)-2,6-diazaspiro[3.3]heptan-6-yl]-2-oxo-indoline-5-carbonitrile] | in the range around 55 nM
14 | COc1ccc(S(=O)(=O)N2C(=O)C(c3cccnc3OC)(N3CC4(CN(C5CCN(C)CC5)C4)C3)C3C=C(C#N)C=CC32)nc1 (stereo not drawn) [US9688678, 9A (+)-3-(2-ethoxy-3-pyridyl)-1-[(5-methoxy-2-pyridyl)sulfonyl]-3-[2-(1-methyl-4-piperidyl)-2,6-diazaspiro[3.3]heptan-6-yl]-2-oxo-indoline-5-carbonitrile] | < 1 nM
15 | CCOc1ccc(OC)c(C2(N3CC4(CN(C5CCN(C6COC6)CC5)C4)C3)C(=O)N(S(=O)(=O)c3ccc(OC)cn3)C3C=CC(C#N)=CC32)c1 (stereo not drawn) [US9688678, 11 (+)-3-(2-ethoxy-5-methoxyphenyl)-1-((5-methoxypyridin-2-yl)sulfonyl)-3-(6-(1-(oxetan-3-yl)piperidin-4-yl)-2,6-diazaspiro[3.3]heptan-2-yl)-2-oxoindoline-5-carbonitrile] | < 1 nM
16 | CCOc1cnc(OCC)c(C2(N3CC4(CN(C5CCN(C)CC5)C4)C3)C(=O)N(S(=O)(=O)c3cc(OC)ccn3)C3C=CC(C#N)=CC32)c1 (stereo not drawn) [US9688678, 12 (+-)-3-(2-ethoxy-3-pyridyl)-1-(4-methoxyphenyl)sulfonyl-3-[2-(1-methyl-4-piperidyl)-2,6-diazaspiro[3.3]heptan-6-yl]-2-oxo-indoline-5-carbonitrile] | in the range around 55 nM
